Source: PMC6934184, “Selective DNA-PKcs inhibition extends the therapeutic index of localized radiotherapy and chemotherapy” (The Journal of Clinical Investigation, 2019)

Target: T1, IGF1R (Homo sapiens, UniProt P08069)
T1 construct: purchased Thermo Fisher Scientific (Life Technologies) SelectScreen
Test: SelectScreen Z'LYTE
Type: biochemical
Method in brief: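 Percent values come from Thermo SelectScreen profiling of NU5455, combining activity and binding assays. CSF1R was run in Z'LYTE format at Km app ATP, and CAMK1 in Adapta format with ATP listed at 10.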

T1 sequence (P08069 31-1367): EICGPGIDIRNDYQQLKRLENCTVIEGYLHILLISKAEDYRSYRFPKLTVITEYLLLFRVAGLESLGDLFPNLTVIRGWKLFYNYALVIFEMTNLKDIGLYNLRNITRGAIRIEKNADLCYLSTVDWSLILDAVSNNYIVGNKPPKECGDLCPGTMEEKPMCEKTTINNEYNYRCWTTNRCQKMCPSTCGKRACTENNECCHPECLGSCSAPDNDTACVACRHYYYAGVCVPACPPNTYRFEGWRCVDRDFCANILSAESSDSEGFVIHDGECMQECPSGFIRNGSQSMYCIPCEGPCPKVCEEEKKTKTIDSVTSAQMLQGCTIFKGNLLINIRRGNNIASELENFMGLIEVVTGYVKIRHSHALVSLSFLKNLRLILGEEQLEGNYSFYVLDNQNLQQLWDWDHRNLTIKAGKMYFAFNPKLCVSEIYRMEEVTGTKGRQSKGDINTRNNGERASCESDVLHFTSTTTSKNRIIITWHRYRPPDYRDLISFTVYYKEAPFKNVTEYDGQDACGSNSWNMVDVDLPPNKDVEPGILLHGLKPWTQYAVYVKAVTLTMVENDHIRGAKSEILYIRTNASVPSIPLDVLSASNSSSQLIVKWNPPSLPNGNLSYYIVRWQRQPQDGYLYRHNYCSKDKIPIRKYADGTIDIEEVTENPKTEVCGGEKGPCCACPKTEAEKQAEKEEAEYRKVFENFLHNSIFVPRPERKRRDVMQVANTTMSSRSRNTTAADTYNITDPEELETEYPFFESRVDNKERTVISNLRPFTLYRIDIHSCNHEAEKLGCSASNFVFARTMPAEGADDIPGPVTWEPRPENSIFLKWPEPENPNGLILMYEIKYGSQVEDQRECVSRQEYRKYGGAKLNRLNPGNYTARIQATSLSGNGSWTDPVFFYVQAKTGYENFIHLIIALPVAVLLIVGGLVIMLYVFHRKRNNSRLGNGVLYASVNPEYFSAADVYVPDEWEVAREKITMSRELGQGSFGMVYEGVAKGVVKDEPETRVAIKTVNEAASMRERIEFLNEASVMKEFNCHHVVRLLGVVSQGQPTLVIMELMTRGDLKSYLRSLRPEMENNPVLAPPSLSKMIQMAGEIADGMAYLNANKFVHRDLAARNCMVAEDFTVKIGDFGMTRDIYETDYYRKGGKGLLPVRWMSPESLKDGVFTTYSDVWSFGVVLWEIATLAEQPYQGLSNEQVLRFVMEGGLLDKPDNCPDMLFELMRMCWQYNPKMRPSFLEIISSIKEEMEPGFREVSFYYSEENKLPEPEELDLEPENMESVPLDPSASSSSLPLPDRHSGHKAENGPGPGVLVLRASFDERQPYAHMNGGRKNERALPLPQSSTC

CN(C(=O)CN1CCOCC1)c1ccc2sc3c(-c4cccc5c(=O)cc(N6CC7CCC(C6)O7)oc45)cccc3c2c1 [NU5455]
inhibition at 1 µM: 9.7%
